Experiment [1] addresses CDK2/CycE (Homo sapiens (Human), UniProt P24941). Description: CDK2/CycE kinase assay (TR-FRET). Type of experiment: biochemical. The note with it: Method 2. From the text:
2. CDK2/CycE Kinase Assay:
CDK2/CycE—inhibitory activity of compounds of the present invention was quantified employing the CDK2/CycE TR-FRET assay as described in the following paragraphs:
Recombinant fusion proteins of GST and human CDK2 and of GST and human CycE, expressed in insect cells (Sf9) and purified by Glutathion-Sepharose affinity chromatography, were purchased from ProQinase GmbH (Freiburg, Germany). As substrate for the kinase reaction biotinylated peptide biotin-Ttds-[…]
For orientation: TR-FRET usually uses a lanthanide donor and a delayed reading to cut background.

Experiment [2] addresses CDK9/CycT1 (Homo sapiens (Human), UniProt P50750). Put plainly: CDK9/CycT1 kinase assay (TR-FRET). Format: biochemical. As to conditions: Method 1. The source says: 1. CDK9/CycT1 Kinase Assay:
CDK9/CycT1—inhibitory activity of compounds of the present invention was quantified employing the CDK9/CycT1 TR-FRET assay as described in the following paragraphs:
Recombinant full-length His-tagged human CDK9 and CycT1, expressed in insect cells and purified by Ni-NTA affinity chromatography, were purchased from Invitrogen (Cat. No PV4131). As substrate for the kinase reaction biotinylated peptide biotin-Ttds-[…]

SMILES strings stand for the structures.

CDK9/CycT1, sequence (P50750 whole entry): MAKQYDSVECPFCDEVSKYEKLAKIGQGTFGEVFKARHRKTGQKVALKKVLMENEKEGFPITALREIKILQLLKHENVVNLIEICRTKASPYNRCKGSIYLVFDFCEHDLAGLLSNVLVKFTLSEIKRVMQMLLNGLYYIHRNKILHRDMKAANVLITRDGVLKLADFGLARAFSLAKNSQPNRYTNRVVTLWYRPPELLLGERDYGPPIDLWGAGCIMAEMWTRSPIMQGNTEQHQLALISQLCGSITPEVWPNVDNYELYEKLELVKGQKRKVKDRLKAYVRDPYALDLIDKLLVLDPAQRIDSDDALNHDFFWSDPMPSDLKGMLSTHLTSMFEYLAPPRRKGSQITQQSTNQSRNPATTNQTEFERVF
CDK9/CycT1, sequence (O60563 whole entry partner): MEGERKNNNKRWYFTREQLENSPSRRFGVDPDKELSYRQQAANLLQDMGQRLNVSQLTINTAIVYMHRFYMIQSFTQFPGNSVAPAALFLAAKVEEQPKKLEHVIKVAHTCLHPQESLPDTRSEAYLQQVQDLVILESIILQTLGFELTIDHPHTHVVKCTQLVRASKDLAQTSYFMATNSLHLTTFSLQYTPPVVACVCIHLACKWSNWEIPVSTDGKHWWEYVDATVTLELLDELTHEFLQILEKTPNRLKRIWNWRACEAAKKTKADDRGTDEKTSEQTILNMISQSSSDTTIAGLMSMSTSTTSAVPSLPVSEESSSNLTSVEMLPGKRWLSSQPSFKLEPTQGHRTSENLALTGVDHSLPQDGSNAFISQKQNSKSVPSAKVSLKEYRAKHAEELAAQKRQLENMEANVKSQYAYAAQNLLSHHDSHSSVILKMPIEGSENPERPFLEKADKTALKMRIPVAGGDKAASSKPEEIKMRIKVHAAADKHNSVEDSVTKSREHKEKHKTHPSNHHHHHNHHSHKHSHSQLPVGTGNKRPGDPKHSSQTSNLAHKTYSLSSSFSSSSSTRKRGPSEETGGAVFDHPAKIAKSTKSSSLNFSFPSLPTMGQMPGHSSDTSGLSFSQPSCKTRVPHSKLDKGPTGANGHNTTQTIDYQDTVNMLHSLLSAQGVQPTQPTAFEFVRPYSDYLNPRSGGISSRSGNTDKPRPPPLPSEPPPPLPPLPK

A word on the IC50: it is the midpoint of a concentration-inhibition curve. A lower IC50 goes with greater potency. Regarding `COc1ccccc1-c1ncnc(Nc2cccc(CS(C)(=N)=O)c2)n1` (racemic) [Example 26, (rac)-4-(2-Methoxyphenyl)-N-{3-[(S-methylsulfonimidoyl)methyl]phenyl}-1,3,5-triazin-2-amine], the IC50 in experiment [1] came out at 4.6 µM; in experiment [2], 35 nM.

Turning to `CCOC(=O)N=S(C)(=O)Cc1cccc(Nc2ncnc(-c3cccc4c3OCC4)n2)c1` (racemic) [Example 33, (rac)-Ethyl [(3-{[4-(2,3-dihydro-1-benzofuran-7-yl)-1,3,5-triazin-2-yl]amino}benzyl)(methyl)oxido-λ^6-sulfanylidene]carbamate], the IC50 was determined as 3.1 µM in experiment [1] and 21 nM in experiment [2].

Turning to `CS(=N)(=O)Cc1cccc(Nc2ncnc(-c3cccc4c3OCC4)n2)c1` (racemic) [Example 34, (rac)-4-(2,3-Dihydro-1-benzofuran-7-yl)-N-{3-[(S-methylsulfonimidoyl)methyl]phenyl}-1,3,5-triazin-2-amine], the IC50 in experiment [1] was 2.2 µM; in experiment [2], 68 nM.

Consider `CS(=N)(=O)Cc1cccc(Nc2ncnc(-c3cccc4c3OCCO4)n2)c1` (racemic) [Example 38, (rac)-4-(2,3-Dihydro-1,4-benzodioxin-5-yl)-N-{3-[(S-methylsulfonimidoyl)methyl]phenyl}-1,3,5-triazin-2-amine], for which the figures for the IC50 in experiment [1] and in experiment [2] were 1.6 µM and 14 nM, respectively.

As to `CN=S(C)(=O)Cc1cccc(Nc2ncnc(-c3ccc(F)cc3OC)n2)c1` (racemic) [Example 41, (rac)-N-{3-[(N,S-Dimethylsulfonimidoyl)methyl]phenyl}-4-(4-fluoro-2-methoxyphenyl)-1,3,5-triazin-2-amine], the IC50 in experiment [1] was 2.6 µM; in experiment [2] it was 36 nM.

On to `CCOC(=O)N=S(C)(=O)Cc1cccc(Nc2ncnc(-c3cccc(Cl)c3OC)n2)c1` (racemic) [Example 45, (rac)-Ethyl [(3-{[4-(3-chloro-2-methoxyphenyl)-1,3,5-triazin-2-yl]amino}benzyl)(methyl)oxido-λ^6-sulfanylidene]carbamate], for which the results for the IC50 in experiment [1] and in experiment [2] were 9 µM and 820 nM, respectively.

Turning to `CCOC(=O)N=S(C)(=O)Cc1cccc(Nc2ncnc(-c3cc(F)ccc3OCC3CCOCC3)n2)c1` (racemic) [Example 46, (rac)-Ethyl {[3-({4-[5-fluoro-2-(tetrahydro-2H-pyran-4-ylmethoxy)phenyl]-1,3,5-triazin-2-yl}amino)benzyl](methyl)oxido-λ^6-sulfanylidene}carbamate], the IC50 in experiment [1] was found to be 11 µM; in experiment [2] it was 120 nM.

As for `CCOC(=O)N=S(C)(=O)Cc1cccc(Nc2ncnc(-c3ccccc3Oc3ccccc3)n2)c1` (racemic) [Example 47, (rac)-Ethyl [methyl(oxido)(3-{[4-(2-phenoxyphenyl)-1,3,5-triazin-2-yl]amino}benzyl)-λ^6-sulfanylidene]carbamate], the IC50 was 6.5 µM in experiment [1] and 35 nM in experiment [2].

For `CS(=N)(=O)Cc1cccc(Nc2ncnc(-c3ccc(F)cc3OCCC3CCOCC3)n2)c1` (racemic) [Example 57, (rac)-4-{4-Fluoro-2-[2-(tetrahydro-2H-pyran-4-yl)ethoxy]phenyl}-N-{3-[(S-methylsulfonimidoyl)methyl]phenyl}-1,3,5-triazin-2-amine], the 50% inhibitory concentration (IC50) in experiment [1] was 8.3 µM; in experiment [2], 370 nM.

On to `COc1cc(F)ccc1-c1ncnc(Nc2cccc(CS(=N)(=O)C3CCOCC3)c2)n1` (racemic) [Example 58, (rac)-4-(4-Fluoro-2-methoxyphenyl)-N-(3-{[S-(tetrahydro-2H-pyran-4-yl)sulfonimidoyl]methyl}phenyl)-1,3,5-triazin-2-amine], for which the figures for the IC50 in experiment [1] and in experiment [2] were 5.2 µM and 89 nM, respectively.

Consider `CCOC(=O)N=S(C)(=O)Cc1cccc(Nc2ncnc(-c3ccccc3OCc3ccc(Cl)c(Cl)c3)n2)c1` (racemic) [Example 60, (rac)-Ethyl [{3-[(4-{2-[(3,4-dichlorobenzyl)oxy]phenyl}-1,3,5-triazin-2-yl)amino]benzyl}(methyl)oxido-λ^6-sulfanylidene]carbamate], for which the IC50 in experiment [1] turned out to be 3.3 µM; in experiment [2], 13 nM.

For the compound `CS(=N)(=O)Cc1cccc(Nc2ncnc(-c3ccccc3OCc3ccc(Cl)c(Cl)c3)n2)c1` (racemic) [Example 61, (rac)-4-{2-[(3,4-Dichlorobenzyl)oxy]phenyl}-N-{3-[(S-methylsulfonimidoyl)methyl]phenyl}-1,3,5-triazin-2-amine], the IC50 in experiment [1] came to 1.2 µM; in experiment [2], 15 nM.

With `[2H]c1c([2H])c([2H])c(C([2H])([2H])Oc2cc(F)ccc2-c2ncnc(Nc3cccc(CS(C)(=N)=O)c3)n2)c([2H])c1[2H]` (racemic) [Example 62, (rac)-4-(4-Fluoro-2-{[(^2H5)phenyl(^2H2)methyl]oxy}phenyl)-N-{3-[(S-methylsulfonimidoyl)methyl]phenyl}-1,3,5-triazin-2-amine], the IC50 in experiment [1] stood at 0.22 µM; in experiment [2], 7 nM.

Consider `CS(=N)(=O)Cc1cccc(Nc2ncnc(-c3ccc(F)cc3OCCC(F)(F)F)n2)c1` (racemic) [Example 65, (rac)-4-[4-Fluoro-2-(3,3,3-trifluoropropoxy)phenyl]-N-{3-[(S-methylsulfonimidoyl)methyl]phenyl}-1,3,5-triazin-2-amine], for which the results for the IC50 in experiment [1] and in experiment [2] were 6 µM and 79 nM, respectively.

For the compound `CS(=N)(=O)Cc1cccc(Nc2ncnc(-c3ccc(F)cc3OCc3ccccn3)n2)c1` (racemic) [Example 67, (rac)-4-[4-Fluoro-2-(pyridin-2-ylmethoxy)phenyl]-N-{3-[(S-methylsulfonimidoyl)methyl]phenyl}-1,3,5-triazin-2-amine], the IC50 was 6.9 µM in experiment [1] and 97 nM in experiment [2].

On to `COc1cc(F)ccc1-c1ncnc(Nc2cccc(CS(=O)(=NC#N)C3CC3)c2)n1` (racemic) [Example 113, (rac)-[Cyclopropyl(3-{[4-(4-fluoro-2-methoxyphenyl)-1,3,5-triazin-2-yl]amino}benzyl)oxido-λ^6-sulfanylidene]cyanamide], for which the IC50 came out at 0.3 µM in experiment [1] and 2 nM in experiment [2].

Turning to `COc1cc(Cl)ccc1-c1ncnc(Nc2cccc(CS(C)(=N)=O)c2)n1` (single isomer, unassigned) [Example 13, 4-(4-Chloro-2-methoxyphenyl)-N-{3-[(S-methylsulfonimidoyl)methyl]phenyl}-1,3,5-triazin-2-amine], the figures for the IC50 in experiment [1] and in experiment [2] were 9.5 µM and 93 nM, respectively.

For `COc1cc(Cl)ccc1-c1ncnc(Nc2cccc(CS(C)(=N)=O)c2)n1` (single isomer, unassigned) [Example 14, 4-(4-Chloro-2-methoxyphenyl)-N-{3-[(S-methylsulfonimidoyl)methyl]phenyl}-1,3,5-triazin-2-amine], the IC50 in experiment [1] worked out at 13 µM; in experiment [2], 160 nM.

`COc1ccccc1-c1ncnc(Nc2cccc(CS(C)(=N)=O)c2)n1` (single isomer, unassigned) [Example 27, 4-(2-Methoxyphenyl)-N-{3-[(S-methylsulfonimidoyl)methyl]phenyl}-1,3,5-triazin-2-amine]: the figures for the IC50 in experiment [1] and in experiment [2] were 7.6 µM and 100 nM, respectively.

Take `COc1ccccc1-c1ncnc(Nc2cccc(CS(C)(=N)=O)c2)n1` (single isomer, unassigned) [Example 28, 4-(2-Methoxyphenyl)-N-{3-[(S-methylsulfonimidoyl)methyl]phenyl}-1,3,5-triazin-2-amine]: the IC50 in experiment [1] amounted to 5.9 µM; in experiment [2], 89 nM.

Source of the values: patent US9669034B2, “4-aryl-N-phenyl-1,3,5-triazin-2-amines containing a sulfoximine group” (BAYER INTELLECTUAL PROPERTY GMBH, priority 2011, dated 2017).
